Our source for the IC50 values is ChEMBL document CHEMBL1133271, “Synthesis and biological property of carba and 20-deoxo analogues of arenastatin A” (Bioorg Med Chem Lett, 2000).

As usually defined, the IC50 is the midpoint of a concentration-inhibition curve.

Converted amounts (≈) assume the structure as drawn.

This test in a line: Cytotoxicity of compound was determined against KB cells. It counts as functional, cell-based. Conditions: Homo sapiens.
`COc1ccc(C[C@H]2NC(=O)/C=C/C[C@@H]([C@H](C)C3OC3c3ccccc3)OC(=O)[C@H](CC(C)C)OCCNC2=O)cc1` (some centres undefined) yielded an IC50 of 40 ng/mL (≈ 69.1 nM). The result for `COc1ccc(C[C@H]2NC(=O)/C=C/C[C@@H]([C@H](C)C3OC3c3ccccc3)OC(=O)[C@H](CC(C)C)CC(=O)CCNC2=O)cc1` (some centres undefined) reads 70 ng/mL (≈ 116 nM). The result for `COc1ccc(C[C@H]2NC(=O)/C=C/C[C@@H]([C@H](C)C3OC3c3ccccc3)OC(=O)[C@H](CC(C)C)NC(=O)CCNC2=O)cc1` (some centres undefined) reads 6 ng/mL (≈ 9.91 nM); that for `COc1ccc(C[C@H]2NC(=O)/C=C/C[C@@H]([C@H](C)[C@H]3O[C@@H]3c3ccccc3)OC(=O)[C@H](CC(C)C)OC(=O)CCNC2=O)cc1` [ARENASTATIN A], 0.005 ng/mL (≈ 0.00824 nM).
